Article PMC9518283 (Journal of Enzyme Inhibition and Medicinal Chemistry, 2022)

What was measured:
[1] = molecular target: human AChE (hAChE; EC 3.1.1.7) (Homo sapiens, UniProt P22303); assay: biochemical; conditions: for IC50: mean of at least three experiments, read-out: IC50 hAChE ± STD; for SI (hBChE/hAChE): ratio IC50(hBChE)/IC50(hAChE)
Method: (§1) For that purpose, Ellman’s colorimetric assay was used[35].
(§2) The catalytic activity of both cholinesterases was determined by standard Ellman’s method adapted for 96-well plates. All tested inhibitors were freshly prepared in 50% DMSO/50% methanol at 10 mM concentration as stock solutions and then diluted in 0.1 M phosphate buffer, pH 7.4. […] The mixture was pre-incubated at 37 °C for 15 min and subsequently substrate (acetylthiocholine iodide or butyrylthiocholine iodide) was added to the final concentration of 1000 μM. The final volume of the reaction was 100 μL. The catalytic activity was evaluated as the amount of product (%) formed by enzyme after 10 min of incubation at 37 °C. The IC50 values from three independent experiments for each inhibitor concentration in triplicate were calculated using non-linear regression curve analysis in Prism version 7 Software (GraphPad Software Inc., San Diego, CA).

[2] = molecular target: human butyrylcholinesterase (hBChE; EC 3.1.1.8) (Homo sapiens, UniProt P06276); assay: biochemical; conditions: mean of at least three experiments; read-out: IC50 hBChE ± STD
human butyrylcholinesterase (hBChE; EC 3.1.1.8), sequence (P06276 29-602): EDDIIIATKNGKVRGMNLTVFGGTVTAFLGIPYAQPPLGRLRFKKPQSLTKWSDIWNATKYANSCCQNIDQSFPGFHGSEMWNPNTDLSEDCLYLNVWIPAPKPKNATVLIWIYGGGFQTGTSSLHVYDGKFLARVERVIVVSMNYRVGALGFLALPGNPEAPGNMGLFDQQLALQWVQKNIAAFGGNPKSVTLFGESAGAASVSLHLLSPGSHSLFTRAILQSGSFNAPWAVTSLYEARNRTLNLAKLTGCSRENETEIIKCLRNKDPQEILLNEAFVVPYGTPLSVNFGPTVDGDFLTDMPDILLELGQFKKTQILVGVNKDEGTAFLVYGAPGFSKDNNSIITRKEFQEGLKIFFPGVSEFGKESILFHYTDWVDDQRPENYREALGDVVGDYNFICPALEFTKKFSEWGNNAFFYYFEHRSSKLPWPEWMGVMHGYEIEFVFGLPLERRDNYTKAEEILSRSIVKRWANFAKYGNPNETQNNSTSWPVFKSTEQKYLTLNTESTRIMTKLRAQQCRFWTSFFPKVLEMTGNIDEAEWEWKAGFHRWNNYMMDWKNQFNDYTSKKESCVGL
Method: as §1, §2

[3] = molecular target: T1, hMAO-A (Homo sapiens, UniProt P21397); assay: hMAO-A inhibition, kynuramine substrate, HPLC-MS; format: biochemical; conditions: residual enzyme activity; for % of MAO-A activity (1 µM): compound at 1 µM; for % of MAO-A activity (10 µM): compound at 10 µM
T1 construct: purchased Sigma-Aldrich (St. Louis, MO, USA)
T1 sequence (P21397 1-527): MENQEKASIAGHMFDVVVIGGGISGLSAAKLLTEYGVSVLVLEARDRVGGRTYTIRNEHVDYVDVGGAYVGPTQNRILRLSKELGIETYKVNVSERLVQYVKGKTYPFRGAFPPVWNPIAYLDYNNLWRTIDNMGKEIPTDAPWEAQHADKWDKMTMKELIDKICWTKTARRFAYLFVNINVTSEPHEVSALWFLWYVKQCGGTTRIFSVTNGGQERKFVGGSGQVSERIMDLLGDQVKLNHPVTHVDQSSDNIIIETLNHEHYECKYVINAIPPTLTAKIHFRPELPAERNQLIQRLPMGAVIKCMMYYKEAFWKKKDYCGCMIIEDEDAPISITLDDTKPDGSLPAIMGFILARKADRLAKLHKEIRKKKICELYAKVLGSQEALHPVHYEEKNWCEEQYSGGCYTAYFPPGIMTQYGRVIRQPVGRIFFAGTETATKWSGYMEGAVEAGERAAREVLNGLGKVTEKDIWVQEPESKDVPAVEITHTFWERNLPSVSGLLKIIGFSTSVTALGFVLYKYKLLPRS
Method: (§3) The hMAO-A and hMAO-B enzymes were purchased from Sigma-Aldrich (St. Louis, MO, USA). […] The mixture was pre-incubated at 37 °C for 5 min and subsequently substrate kynuramine was added to the final concentration of 60 µM in the case of hMAO-A and 30 µM in the case of hMAO-B. The final volume of reaction mixture was 0.1 mL. The whole reaction mixture was incubated at 37 °C for 30 min. The reaction was stopped by the addition of 200 µL acetonitrile/methanol mixture (ratio 1:1) and cooling down to 0 °C. […] Eluents: (A) 0.1% formic acid in water; (B) 0.1% formic acid in acetonitrile.

[4] = molecular target: T2, hMAO-B (Homo sapiens, UniProt P27338); assay: biochemical; conditions: residual enzyme activity; for % of MAO-B activity (1 µM): compound at 1 µM; for % of MAO-B activity (10 µM): compound at 10 µM
T2 construct: purchased Sigma-Aldrich (St. Louis, MO, USA)
T2 sequence (P27338 1-520): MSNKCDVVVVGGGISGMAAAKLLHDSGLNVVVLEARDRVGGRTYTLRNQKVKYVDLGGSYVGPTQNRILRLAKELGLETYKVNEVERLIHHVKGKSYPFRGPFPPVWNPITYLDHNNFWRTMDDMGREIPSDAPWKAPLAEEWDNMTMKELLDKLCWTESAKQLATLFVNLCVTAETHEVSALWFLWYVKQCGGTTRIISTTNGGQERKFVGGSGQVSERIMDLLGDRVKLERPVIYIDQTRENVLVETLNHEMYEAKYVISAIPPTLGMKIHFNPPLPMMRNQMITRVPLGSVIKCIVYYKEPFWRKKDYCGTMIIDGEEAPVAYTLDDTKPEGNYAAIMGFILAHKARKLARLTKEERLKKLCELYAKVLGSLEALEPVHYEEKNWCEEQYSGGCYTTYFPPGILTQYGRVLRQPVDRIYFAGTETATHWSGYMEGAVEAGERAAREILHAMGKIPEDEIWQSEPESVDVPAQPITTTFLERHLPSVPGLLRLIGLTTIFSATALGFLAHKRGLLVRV
Method: as §3

human AChE (hAChE; EC 3.1.1.7), sequence (P22303 32-614): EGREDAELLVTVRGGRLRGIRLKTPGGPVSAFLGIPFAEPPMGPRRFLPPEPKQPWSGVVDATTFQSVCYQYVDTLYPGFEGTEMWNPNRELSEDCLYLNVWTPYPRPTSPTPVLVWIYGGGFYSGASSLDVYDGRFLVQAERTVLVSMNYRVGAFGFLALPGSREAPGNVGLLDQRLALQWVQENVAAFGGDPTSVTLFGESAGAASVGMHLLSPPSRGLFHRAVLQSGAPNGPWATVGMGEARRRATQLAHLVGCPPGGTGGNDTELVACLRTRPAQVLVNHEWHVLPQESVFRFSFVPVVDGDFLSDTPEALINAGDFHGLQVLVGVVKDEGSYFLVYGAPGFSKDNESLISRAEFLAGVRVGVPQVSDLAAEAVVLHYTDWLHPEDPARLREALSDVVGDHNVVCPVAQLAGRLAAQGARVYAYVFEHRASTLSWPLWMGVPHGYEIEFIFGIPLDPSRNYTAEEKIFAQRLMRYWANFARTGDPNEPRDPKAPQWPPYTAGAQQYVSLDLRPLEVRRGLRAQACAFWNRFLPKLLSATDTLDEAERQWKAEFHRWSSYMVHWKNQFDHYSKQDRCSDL

Structure (SMILES) | IC50 [1] [nM] | SI (hBChE/hAChE) [1] | IC50 [2] [nM] | % of MAO-A activity (1 µM) [3] [%] | % of MAO-A activity (10 µM) [3] [%] | % of MAO-B activity (1 µM) [4] [%] | % of MAO-B activity (10 µM) [4] [%]
C=CCN(CC=C)c1c2c(nc3ccccc13)CCCC2.Cl [Compound 1, N,N-Di(prop-2-en-1-yl)-1,2,3,4-tetrahydroacridin-9-amine hydrochloride] | 493 ± 12 | 1.45 | 716 ± 35 | 95 | 85 | 89 | 62
C=CCNc1c2c(nc3ccccc13)CCCC2.Cl [Compound 2, N-(prop-2-en-1-yl)-1,2,3,4-tetrahydroacridin-9-amine hydrochloride] | 303 ± 4 | 1.61 | 488 ± 19 | 78 | 58 | 48 | 72
C=CCNc1c2c(nc3cc(Cl)ccc13)CCCC2.Cl [Compound 3, 6-Chloro-N-(prop-2-en-1-yl)-1,2,3,4-tetrahydroacridin-9-amine hydrochloride] | 70 ± 1 |  | 3220 ± 129 | 76 | 73 | 71 | 64
C=CCN(CC=C)c1c2c(nc3ccc(OC)cc13)CCCC2.Cl [Compound 4, 7-Methoxy-N,N-di(prop-2-en-1-yl)-1,2,3,4-tetrahydroacridin-9-amine hydrochloride] | 3690 ± 113 | 2.37 | 8760 ± 292 | 103 | 107 | 83 | 61
C=CCNc1c2c(nc3ccc(OC)cc13)CCCC2.Cl [Compound 5, 7-Methoxy-N-(prop-2-en-1-yl)-1,2,3,4-tetrahydroacridin-9-amine hydrochloride] | 2270 ± 62 | 5.52 | 12500 ± 387 | 97 | 62 | 82 | 70
C=CCN(CC=C)c1c2c(nc3ccc(Oc4ccccc4)cc13)CCCC2.Cl [Compound 6, 7-Phenoxy-N,N-di(prop-2-en-1-yl)-1,2,3,4-tetrahydroacridin-9-amine hydrochloride] | 9540 ± 138 | 1.38 | 13200 ± 408 | 76 | 78 | 16 | 4
C#CCN(CC#C)c1c2c(nc3ccccc13)CCCC2.Cl [Compound 8, N,N-Di(prop-2-yn-1-yl)-1,2,3,4-tetrahydroacridin-9-amine hydrochloride] | 186 ± 5 | 5.04 | 937 ± 43 | 103 | 111 | 59 | 47
C#CCN(CC#C)c1c2c(nc3cc(Cl)ccc13)CCCC2 [Compound 10] | 105 ± 4 | 103.52 | 10900 ± 1020 | 92 | 92 | 106 | 141
C#CCN(CC#C)c1c2c(nc3ccc(OC)cc13)CCCC2.Cl [Compound 12, 7-Methoxy-N,N-di(prop-2-yn-1-yl)-1,2,3,4-tetrahydroacridin-9-amine hydrochloride] | 5120 ± 184 | 1.56 | 7970 ± 300 | 123 | 114 | 63 | 45
C#CCNc1c2c(nc3ccc(OC)cc13)CCCC2.Cl [Compound 13, 7-Methoxy-N-(prop-2-yn-1-yl)-1,2,3,4-tetrahydroacridin-9-amine hydrochloride] | 1360 ± 39 | 2.75 | 3760 ± 210 | 96 | 82 | 74 | 62
C#CCN(CC#C)c1c2c(nc3ccc(Oc4ccccc4)cc13)CCCC2.Cl [Compound 14, 7-Phenoxy-N,N-di(prop-2-yn-1-yl)-1,2,3,4-tetrahydroacridin-9-amine hydrochloride] | 2880 ± 84 | 4.23 | 12200 ± 713 | 93 | 47 | 73 | 14
C#CCN(CC#C)CCCNc1c2c(nc3cc(Cl)ccc13)CCCC2.Cl.Cl [Compound 22, N'-(6-Chloro-1,2,3,4-tetrahydroacridin-9-yl)-N,N-di(prop-2-yn-1-yl)propane-1,3-diamine dihydrochloride] | 61 ± 2 | 2.79 | 170 ± 13 | 107 | 102 | 87 | 50
C#CCN(CC#C)CCCNc1c2c(nc3ccc(OC)cc13)CCCC2.Cl.Cl [Compound 24, N-(7-Methoxy-1,2,3,4-tetrahydroacridin-9-yl)-N',N'-di(prop-2-yn-1-yl)-propane-1,3-diamine dihydrochloride] | 1950 ± 46 | 0.53 | 1040 ± 60 | 60 | 70 | 169 | 82
C#CCNc1ccnc2cc(Cl)ccc12.Cl [Compound 28, 7-Chloro-N-(prop-2-yn-1-yl)quinolin-4-amine hydrochloride] | 8720 ± 242 |  |  | 39 | 31 | 150 | 61
